In the supplement of paper PMC10627819:

Assays:
B. subtilis 168 [1] = assay: fitness (endpoint OD595 vs no drug) (fraction); higher = more growth
How it was run: (§1)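 In 384-well plates at 37 °C, cultures began at OD595 0.01 in 30 µl, with 55 µl used for S. pneumoniae. OD595 readings every 30 min for 14 h were corrected by the first reading. Fitness divides the stationary-phase transition optical density by the robust mean of no-drug control wells. The result is capped at 1.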

S. aureus Newman [2] = assay: as above
How it was run: as §1

S. pneumoniae D39V [3] = assay: as above
How it was run: as §1

B. subtilis 168 [4] = assay: Bliss interaction score (quartile over a dose matrix) (fitness difference); higher = more antagonism (negative = synergy)
How it was run: (§2)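 Quartiles summarise the Bliss score over technical, biological and donor/recipient replicates, where the score is observed minus expected fitness under a product model. Expected fitness uses single-drug values inferred from combination data. Fitness is OD595 at entry into stationary phase over the plate's robust no-drug mean, capped at 1.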

S. aureus DSM 20231 [5] = assay: as above
How it was run: as §2

S. aureus Newman [6] = assay: as above
How it was run: as §2

S. pneumoniae D39V [7] = assay: as above
How it was run: as §2

S. aureus DSM 20231 [8] = assay: fitness (endpoint OD595 vs no drug) (fraction); higher = more growth
How it was run: as §1
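Throughout, for Bliss interaction score (quartile over a dose matrix): first quartile when negative (synergy) and third quartile when positive (antagonism).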

CNC(C)C1CCC(N)C(OC2C(N)CC(N)C(OC3OCC(C)(O)C(NC)C3O)C2O)O1 (stereo not given) [Gentamicin] + CN[C@@H]1[C@H](O)[C@H](NC)[C@H]2O[C@@]3(O)C(=O)C[C@@H](C)O[C@H]3O[C@@H]2[C@H]1O [Spectinomycin]
fitness, main component drawn
Details	partner 2 µg/mL	partner 4 µg/mL	partner 8 µg/mL	partner 16 µg/mL
B. subtilis 168 [1], first compound 0.0625 µg/mL	0.951	0.988	0.814	–
B. subtilis 168 [1], first compound 0.25 µg/mL	0.325	0.148	–	–
S. aureus Newman [2], first compound 0.375 µg/mL	–	0.915	0.984	0.961
S. aureus Newman [2], first compound 0.5 µg/mL	–	0.931	0.966	0.891
S. aureus Newman [2], first compound 0.75 µg/mL	–	0.928	≥ 1	0.95
S. aureus Newman [2], first compound 1 µg/mL	–	0.993	0.991	0.933
S. aureus Newman [2], first compound 1.5 µg/mL	–	0.923	≥ 1	0.96
S. aureus Newman [2], first compound 2 µg/mL	–	≥ 1	≥ 1	–
S. pneumoniae D39V [3], first compound 2 µg/mL	–	0.964	0.901	0.663
S. pneumoniae D39V [3], first compound 4 µg/mL	–	0.914	0.807	0.643
S. pneumoniae D39V [3], first compound 8 µg/mL	–	0.957	0.879	0.645

fitness, S. aureus Newman [2], one replicate, main component drawn
Details	first compound 1 µg/mL	first compound 2 µg/mL	first compound 4 µg/mL
partner 16 µg/mL	–	–	0.0712
partner 32 µg/mL	0.507	0.101	0.0361
partner 64 µg/mL	0.0654	0.0856	0.0746

main component drawn
Details	Bliss interaction score
B. subtilis 168 [4]	0.0812
S. aureus DSM 20231 [5]	0.044
S. aureus Newman [6]	0.0532
S. pneumoniae D39V [7]	0.0871

CC[C@H]1OC(=O)[C@H](C)[C@@H](O[C@H]2C[C@@](C)(OC)[C@@H](O)[C@H](C)O2)[C@H](C)[C@@H](O[C@@H]2O[C@H](C)C[C@H](N(C)C)[C@H]2O)[C@](C)(O)C[C@@H](C)CN(C)[C@H](C)[C@@H](O)[C@]1(C)O [Azithromycin] + CC(=O)NC[C@H]1CN(c2ccc(N3CCOCC3)c(F)c2)C(=O)O1 [Linezolid]
fitness
Details	first compound 0.125 µg/mL	first compound 0.25 µg/mL	first compound 0.5 µg/mL	first compound 1 µg/mL
B. subtilis 168 [1], partner 0.25 µg/mL	–	–	0.106	–
B. subtilis 168 [1], partner 0.5 µg/mL	–	0.0659	0.0597	0.0407
S. aureus DSM 20231 [8], partner 0.125 µg/mL	0.768	0.744	–	–
S. aureus DSM 20231 [8], partner 0.25 µg/mL	0.608	0.557	0.191	–
S. aureus DSM 20231 [8], partner 0.5 µg/mL	–	0.151	0.0625	–

one replicate
Details	fitness
B. subtilis 168 [1], first compound 0.5 µg/mL, partner 0.0625 µg/mL	0.759
B. subtilis 168 [1], first compound 1 µg/mL, partner 0.0625 µg/mL	0.287
B. subtilis 168 [1], first compound 2 µg/mL, partner 0.0625 µg/mL	0.023
B. subtilis 168 [1], first compound 2 µg/mL, partner 0.125 µg/mL	0
B. subtilis 168 [1], first compound 2 µg/mL, partner 0.25 µg/mL	0.029
S. aureus DSM 20231 [8], first compound 0.125 µg/mL, partner 1 µg/mL	0.0489
S. aureus DSM 20231 [8], first compound 0.25 µg/mL, partner 1 µg/mL	0.0402
S. aureus DSM 20231 [8], first compound 0.5 µg/mL, partner 1 µg/mL	0.0193

Details	Bliss interaction score
B. subtilis 168 [4]	-0.0849
S. aureus DSM 20231 [5]	-0.0673
S. aureus Newman [6]	-0.0582
S. pneumoniae D39V [7]	-0.0318

CC1=C(C(=O)O)N2C(=O)[C@@H](NC(=O)[C@H](N)c3ccccc3)[C@H]2SC1 [Cephalexin] + CCN(CC)CCOC(=O)c1ccc(N)cc1 [Procaine]
fitness
Details	first compound 0.125 µg/mL	first compound 0.25 µg/mL	first compound 0.5 µg/mL	first compound 1 µg/mL
B. subtilis 168 [1], partner 85.5 µg/mL	0.925	0.911	0.904	–
B. subtilis 168 [1], partner 171 µg/mL	0.91	0.912	0.864	–
B. subtilis 168 [1], partner 342 µg/mL	0.879	0.875	0.869	–
S. aureus Newman [2], partner 85.5 µg/mL	–	0.952	–	–
S. aureus Newman [2], partner 342 µg/mL	–	0.966	0.987	≥ 1

fitness, S. pneumoniae D39V [3], one replicate
Details	first compound 0.125 µg/mL	first compound 0.25 µg/mL	first compound 0.5 µg/mL	first compound 1 µg/mL	first compound 2 µg/mL	first compound 4 µg/mL
partner 85.5 µg/mL	≥ 1	≥ 1	≥ 1	0.253	0.0329	0.0487
partner 171 µg/mL	0.958	0.982	≥ 1	0.422	0.058	0.0569
partner 342 µg/mL	0.962	0.997	≥ 1	0.395	0.0539	0.0475

Details	Bliss interaction score
B. subtilis 168 [4]	0.0569
S. aureus DSM 20231 [5]	0.0552
S. aureus Newman [6]	-0.0605
S. pneumoniae D39V [7]	-0.118

C[n+]1ccc(-c2cc[n+](C)cc2)cc1 [Paraquat] + CN(C)c1cc(NC(=O)CNC(C)(C)C)c(O)c2c1C[C@H]1C[C@H]3[C@H](N(C)C)C(O)=C(C(N)=O)C(=O)[C@@]3(O)C(O)=C1C2=O [Tigecycline]
fitness
Details	first compound 1.25 µg/mL	first compound 1.5 µg/mL	first compound 2.5 µg/mL	first compound 3 µg/mL	first compound 5 µg/mL	first compound 6 µg/mL
B. subtilis 168 [1], partner 0.039 µg/mL	0.982	–	0.975	–	0.88	–
B. subtilis 168 [1], partner 0.078 µg/mL	0.919	–	0.957	–	0.86	–
B. subtilis 168 [1], partner 0.156 µg/mL	0.94	–	0.93	–	0.84	–
S. aureus Newman [2], partner 0.039 µg/mL	0.905	–	0.929	–	0.881	–
S. aureus Newman [2], partner 0.078 µg/mL	≥ 1	–	0.952	–	0.934	–
S. aureus Newman [2], partner 0.156 µg/mL	0.975	–	0.925	–	0.898	–
S. pneumoniae D39V [3], partner 0.65 µg/mL	–	0.974	–	0.967	–	0.939
S. pneumoniae D39V [3], partner 1.3 µg/mL	–	0.956	–	0.986	–	0.951
S. pneumoniae D39V [3], partner 2.6 µg/mL	–	0.923	–	0.9	–	0.898

fitness, B. subtilis 168 [1], one replicate
Details	first compound 1.25 µg/mL	first compound 2.5 µg/mL	first compound 5 µg/mL
partner 0.125 µg/mL	≥ 1	≥ 1	≥ 1
partner 0.25 µg/mL	≥ 1	0.93	0.941
partner 0.5 µg/mL	0.998	0.973	0.893

Details	Bliss interaction score
B. subtilis 168 [4]	-0.0331
S. aureus DSM 20231 [5]	0.0449
S. aureus Newman [6]	0.0431
S. pneumoniae D39V [7]	-0.0568
